According to US7659271B2, “Pyrimidine compound having dibenzylamine structure and medicament comprising the same” (Kowa Company, Ltd., priority 2007, dated 2010):

Target: T1, CETP (Homo sapiens, UniProt P11597)
T1 construct: The CETP activity in this plasma was measured with Cholesteryl Ester Transfer Protein Activity kit; from tissue; host or cells: human plasma
T1 sequence (P11597 18-493): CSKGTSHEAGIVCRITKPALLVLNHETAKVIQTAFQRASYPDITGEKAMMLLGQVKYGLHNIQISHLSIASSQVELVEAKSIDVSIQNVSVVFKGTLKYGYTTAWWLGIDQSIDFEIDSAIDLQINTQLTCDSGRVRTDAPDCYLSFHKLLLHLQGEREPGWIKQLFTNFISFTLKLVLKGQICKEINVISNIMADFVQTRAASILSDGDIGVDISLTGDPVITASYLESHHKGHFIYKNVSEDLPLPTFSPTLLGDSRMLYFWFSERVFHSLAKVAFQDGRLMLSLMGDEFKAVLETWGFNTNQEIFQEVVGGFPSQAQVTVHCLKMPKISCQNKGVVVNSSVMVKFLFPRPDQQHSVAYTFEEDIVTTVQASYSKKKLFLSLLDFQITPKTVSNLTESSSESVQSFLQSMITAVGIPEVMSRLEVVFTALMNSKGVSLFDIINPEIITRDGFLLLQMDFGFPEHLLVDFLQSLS
Test: Measurement of CETP inhibitory action in human plasma
Type: biochemical
Details: incubated with compound 37° C. 4 hours, Roar Biomedical CETP Activity kit, read-out: IC50 (concentration inhibiting the CETP activity by 50%)
Protocol: A solution obtained by dissolving an exemplary compound in polyethylene glycol/N-methyl-2-pyrrolidone (vol/vol=1/1) was added to human plasma, and the mixture was incubated in an incubator at 37° C. for 4 hours. The CETP activity in this plasma was measured with Cholesteryl Ester Transfer Protein Activity kit (Roar Biomedical, catalog No.: RB-CETP). Specifically, to each well of a 96-well plate, 95 μL of a buffer (10 mM Tris, 150 mM NaCl, 2 mM EDTA, pH 7.4), 2 μL of Donor particle and 2 μL of Acceptor particle were added, 1 μL of the human plasma after the incubation was added to the mixture, and the mixture was incubated in an incubator at 37° C. for 2 hours. After completion of the incubation, fluorescence intensity (FLU) was measured with a fluorescence plate reader (excitation wavelength: 465 nm, emission wavelength: 535 nm). In accordance with the following equation 1, the CETP activity (% of control) was obtained for the compounds of the examples for two or more concentrations. CETP activity (% of control)=(Sample FLU−Blank FLU)×100/(Control FLU−Blank FLU) (Equation 1)
In the equation, the terms have the following meanings: […]
Blank FLU: Fluorescence intensity of sample not added with plasma
Control FLU: Fluorescence intensity of plasma not added with solution of compound
Sample FLU: Fluorescence intensity of plasma added with solution of compound
A value obtained by subtracting the value of the CETP activity from 100 was defined as the CETP inhibitory rate of each exemplary compound, and a concentration inhibiting the CETP activity by 50% (IC50) was calculated for each exemplary compound from the values of the CETP inhibitory rate at two or more concentrations.

IC50 [nM]	SMILES
500	CCN(CC1CCCC1)c1cc(F)c(F)cc1CN(c1ncc(OCCS(C)(=O)=O)cn1)C(C)c1cc(C(F)(F)F)cc(C(F)(F)F)c1 (stereo not drawn) [Example 22, N-{1-[3,5-bis(trifluoromethyl)phenyl]ethyl}-N-({2-[(cyclopentylmethyl)(ethyl)amino]-4,5-difluorophenyl}methyl)-5-[2-(methylsulfonyl)ethoxy]pyrimidin-2-amine]
400	CC(c1cc(C(F)(F)F)cc(C(F)(F)F)c1)N(Cc1cc(F)cc(F)c1N(CC1CC1)CC1CC1)c1ncc(OCCS(C)(=O)=O)cn1 (stereo not drawn) [Example 47, N-({2-[bis(cyclopropylmethyl)amino]-3,5-difluorophenyl}methyl)-N-{1-[3,5-bis(trifluoromethyl)phenyl]ethyl}-5-[2-(methylsulfonyl)ethoxy]pyrimidin-2-amine]
30	CCN(CC1CCCC1)c1ccc(C(F)(F)F)cc1CN(c1ncc(OCCS(C)(=O)=O)cn1)C(C)c1cc(C#N)cc(C(F)(F)F)c1 (stereo not drawn) [Example 32, 3-{1-[({2-[(cyclopentylmethyl)(ethyl)amino]-5-trifluoromethylphenyl}methyl){5-[2-(methylsulfonyl)ethoxy]pyrimidin-2-yl}amino]ethyl}-5-(trifluoromethyl)benzonitrile]
200	CCN(CC1CCCC1)c1cc(Br)ccc1CN(c1ncc(OCCS(C)(=O)=O)cn1)C(C)c1cc(C(F)(F)F)cc(C(F)(F)F)c1 (stereo not drawn) [Example 28, N-{1-[3,5-bis(trifluoromethyl)phenyl]ethyl}-N-({4-bromo-2-[(cyclopentylmethyl)(ethyl)amino]phenyl}methyl)-5-[2-(methylsulfonyl)ethoxy]pyrimidin-2-amine]

Continued, molecule first:

SMILES	IC50 [nM]
CCN(CC1CCCC1)c1ccc(OC)cc1CN(c1ncc(OCCS(C)(=O)=O)cn1)C(C)c1cc(C(F)(F)F)cc(C(F)(F)F)c1 (stereo not drawn) [Example 5, N-{1-[3,5-bis(trifluoromethyl)phenyl]ethyl}-N-({2-[(cyclopentylmethyl)(ethyl)amino]-5-methoxyphenyl}methyl)-5-[2-(methylsulfonyl)ethoxy]pyrimidin-2-amine]	50
CCN(CC1CCCC1)c1cc(C(F)(F)F)ccc1CN(c1ncc(OCCS(C)(=O)=O)cn1)C(C)c1cc(C(F)(F)F)cc(C(F)(F)F)c1 (stereo not drawn) [Example 16, N-{1-[3,5-bis(trifluoromethyl)phenyl]ethyl}-N-({2-[(cyclopentylmethyl)(ethyl)amino]-4-(trifluoromethyl)phenyl}methyl)-5-[2-(methylsulfonyl)ethoxy]pyrimidin-2-amine]	150
CCN(CC1CCCC1)c1cc(OC)ccc1CN(c1ncc(OCCS(C)(=O)=O)cn1)C(C)c1cc(C(F)(F)F)cc(C(F)(F)F)c1 (stereo not drawn) [Example 13, N-{1-[3,5-bis(trifluoromethyl)phenyl]ethyl}-N-({2-[(cyclopentylmethyl)(ethyl)amino]-4-methoxyphenyl}methyl)-5-[2-(methylsulfonyl)ethoxy]pyrimidin-2-amine]	100
CCN(CC1CCCC1)c1ccc(C)cc1CN(c1ncc(OCCS(C)(=O)=O)cn1)C(C)c1cc(C(F)(F)F)cc(C(F)(F)F)c1 (stereo not drawn) [Example 9, N-{1-[3,5-bis(trifluoromethyl)phenyl]ethyl}-N-({2-[(cyclopentylmethyl)(ethyl)amino]-5-methylphenyl}methyl)-5-[2-(methylsulfonyl)ethoxy]pyrimidin-2-amine]	70
CCN(CC1CCCC1)c1c(F)cc(F)cc1CN(c1ncc(OCCS(C)(=O)=O)cn1)C(C)c1cc(C(F)(F)F)cc(C(F)(F)F)c1 (stereo not drawn) [Example 7, N-{1-[3,5-bis(trifluoromethyl)phenyl]ethyl}-N-({2-[(cyclopentylmethyl)(ethyl)amino]-3,5-difluorophenyl}methyl)-5-[2-(methylsulfonyl)ethoxy]pyrimidin-2-amine]	300
